Assay results as given in patent US10422803B2, “Light-activated cation channel and uses thereof” (The Board of Trustees of the Leland Stanford Junior …, priority 2005, dated 2019).

System: hippocampal neurons
Assay: Light-driven synaptic transmission from ChR2-expressing presynaptic neurons
Format: cell-based, rat
Procedure: Spiking was measured while injecting current to keep the voltage of the cell at approximately −65 mV (holding current ranging from 0 pA to 200 pA). For the synaptic transmission experiments, we patched nonfluorescent neurons near ChR2-expressing neurons, immersed in Tyrode solution containing either 20 μM gabazine to isolate just the excitatory postsynaptic response, or in 5 μM NBQX to isolate just the inhibitory postsynaptic response. To confirm whether the evoked potentials were indeed synaptically driven, after synaptic stimulation we blocked all postsynaptic receptors with solution containing both 20 μM gabazine and 5 μM NBQX, and rephotostimulated.

Row | Compound | effect on light-driven inhibitory synaptic responses (GABAergic transmission blocker, FIG. 4(d)) | effect on light-driven excitatory synaptic responses (glutamatergic blocker, FIG. 4(c))
1 | COc1ccc(-c2ccc(=N)n(CCCC(=O)O)n2)cc1 [gabazine] | abolishes these synaptic responses | –
2 | NS(=O)(=O)c1cccc2c1c([N+](=O)[O-])cc1nc(O)c(O)nc12 [NBQX] | – | abolishes these synaptic responses
